This note sets out measurements from patent US4061861A, “7-[α-(2,3-DIHYDRO-2-OXO-1H-benzimidazol-1-ylcarbonyl-amino) arylacetamido]cephalosporins” (Eli Lilly and Company, priority 1976, dated 1977).

In brackets after ≈: the same amount, converted by molar mass.

What all share (assay type): cell-based
Assay [1] relates to Salmonella heidelberg. As to the kind of experiment: MIC by gradient plate in vitro method, Salmonella heidelberg. The conditions noted are these: Salmonella enterica, read-out: Minimum Inhibitory Concentration. An excerpt: (§1) The antibiotic activity of the cephalosporin compounds of this invention is illustrated by the data provided in the following Table of representative compounds. The values in the Table are the minimum inhibitory concentrations (MIC) for the test compounds against the indicated microorganisms. The MIC values were obtained using the gradient plate in vitro method for determining antibiotic activity.

In assay [2] the test system is Aerobacter aerogenes. As to the kind of experiment: MIC by gradient plate in vitro method, Aerobacter aerogenes. The conditions noted are these: Klebsiella aerogenes, read-out: Minimum Inhibitory Concentration.
From the text: as §1

Assay [3] relates to X400. As to the kind of experiment: MIC by gradient plate in vitro method, X400 (methicillin resistant Staphylococcus). The conditions noted are these: read-out: Minimum Inhibitory Concentration.
From the text: as §1
(§2) Staphylococcus. X-400 is a methicillin resistant Staphylococcus.

Assay [4] concerns Serratia marcescens. As to the kind of experiment: MIC by gradient plate in vitro method, Serratia marcescens. The conditions noted are these: read-out: Minimum Inhibitory Concentration.
From the text: as §1

Assay [5] deals with Klebsiella pneumoniae. As to the kind of experiment: MIC by gradient plate in vitro method, Klebsiella pneumoniae. The conditions noted are these: read-out: Minimum Inhibitory Concentration.
From the text: as §1

Assay [6] relates to Escherichia coli. As to the kind of experiment: MIC by gradient plate in vitro method, Escherichia coli. The conditions noted are these: read-out: Minimum Inhibitory Concentration.
From the text: as §1

The test system of assay [7] is Shigella sp. As to the kind of experiment: MIC by gradient plate in vitro method, Shigella sp. The conditions noted are these: read-out: Minimum Inhibitory Concentration.
From the text: as §1

For assay [8], the system named is V32. As to the kind of experiment: MIC by gradient plate in vitro method, V32 (penicillin resistant Staphylococcus). The conditions noted are these: read-out: Minimum Inhibitory Concentration.
From the text: as §1
(§3) ^1 Test organisms V41, V32, and V84 are penicillin resistant
as §2

In assay [9] the test system is V41. As to the kind of experiment: MIC by gradient plate in vitro method, V41 (penicillin resistant Staphylococcus). The conditions noted are these: read-out: Minimum Inhibitory Concentration.
From the text: as §1, §3, §2

The subject of assay [10] is Pseudomonas aeruginosa. As to the kind of experiment: MIC by gradient plate in vitro method, Pseudomonas aeruginosa. The conditions noted are these: read-out: Minimum Inhibitory Concentration.
From the text: as §1

For assay [11], the system named is V84. As to the kind of experiment: MIC by gradient plate in vitro method, V84 (penicillin resistant Staphylococcus). The conditions noted are these: read-out: Minimum Inhibitory Concentration.
From the text: as §1, §3, §2

As for `CC(=O)OCC1=C(C(=O)O)N2C(=O)C(NC(=O)C(NC(=O)n3c(=O)[nH]c4ccccc43)c3ccccc3)[C@H]2SC1` (stereo partly drawn) [Test Compound A, 7-[α-(2,3-Dihydro-2-oxo-1H-benzimidazol-1-ylcarbonylamino)phenylacetamido]-3-acetoxymethyl-3-cephem-4-carboxylic acid], the MIC in assay [1] was 120 µg/mL (≈ 212 µM); in assay [2] it was 140 µg/mL (≈ 248 µM); in [3], > 20 µg/mL; in assay [4], > 200 µg/mL; in assay [5] it was 90 µg/mL (≈ 159 µM); in [6], 140 µg/mL (≈ 248 µM). The MIC in [7] amounted to 100 µg/mL (≈ 177 µM); in [8], 11 µg/mL (≈ 19.4 µM); in assay [9], 8 µg/mL (≈ 14.1 µM); in assay [10] it was 16 µg/mL (≈ 28.3 µM); in [11] it was 8 µg/mL (≈ 14.1 µM).

Turning to `Cn1nnnc1SCC1=C(C(=O)O)N2C(=O)C(NC(=O)C(NC(=O)n3c(=O)[nH]c4ccccc43)c3ccccc3)[C@H]2SC1` (stereo partly drawn) [Test Compound B, 7-[α-(2,3-Dihydro-2-oxo-1H-benzimidazol-1-ylcarbonylamino)phenylacetamido]-3-(1-methyltetrazol-5-ylthiomethyl)-3-cephem-4-carboxylic acid], the MIC is 15 µg/mL (≈ 24.1 µM) in [1]; 21.8 µg/mL (≈ 35.1 µM) in assay [2]; > 20 µg/mL in [3]; 120 µg/mL (≈ 193 µM) in assay [4]; 7 µg/mL (≈ 11.3 µM) in assay [5]; 9 µg/mL (≈ 14.5 µM) in assay [6]. Besides, the MIC in assay [7] is 16 µg/mL (≈ 25.7 µM); in [8] it was 6 µg/mL (≈ 9.65 µM); in assay [9] it was 1 µg/mL (≈ 1.61 µM); in assay [10] it was 12 µg/mL (≈ 19.3 µM); in [11] it was 0.9 µg/mL (≈ 1.45 µM).

`CC(=O)OCC1=C(C(=O)O)N2C(=O)C(NC(=O)C(NC(=O)n3c(=O)n(C)c4ccccc43)c3ccccc3)[C@H]2SC1` (stereo partly drawn) [Test Compound C, 7-[α-(3-Methyl-2,3-dihydro-2-oxo-1H-benzimidazol-1-ylcarbonylamino)phenylacetamido]-3-acetoxymethyl-3-cephem-4-carboxylic acid]: the MIC in assay [1] is 80 µg/mL (≈ 138 µM); in [2] it was 120 µg/mL (≈ 207 µM); in assay [3], > 20 µg/mL; in assay [4] it was > 200 µg/mL; in assay [5], 25 µg/mL (≈ 43.1 µM); in [6] it was 72.5 µg/mL (≈ 125 µM). The MIC stood at 55 µg/mL (≈ 94.9 µM) in assay [7]; 6 µg/mL (≈ 10.4 µM) in [8]; 5 µg/mL (≈ 8.63 µM) in [9]; 8.5 µg/mL (≈ 14.7 µM) in assay [10]; 0.9 µg/mL (≈ 1.55 µM) in [11].

Turning to `Cn1nnnc1SCC1=C(C(=O)O)N2C(=O)C(NC(=O)C(NC(=O)n3c(=O)n(C)c4ccccc43)c3ccccc3)[C@H]2SC1` (stereo partly drawn) [Test Compound D, 7-[α-(3-Methyl-2,3-dihydro-2-oxo-1H-benzimidazol-1-ylcarbonylamino)phenylacetamido]-3-(1-methyltetrazol-5-ylthiomethyl)-3-cephem-4-carboxylic acid], the MIC in [1] was 18 µg/mL (≈ 28.3 µM); in [2] it was 30 µg/mL (≈ 47.2 µM); in assay [3], 16 µg/mL (≈ 25.2 µM); in [4], > 200 µg/mL; in assay [5], 19 µg/mL (≈ 29.9 µM); in assay [6], 14 µg/mL (≈ 22 µM). Also, the MIC in [7] was 15 µg/mL (≈ 23.6 µM); in assay [8] it was 3 µg/mL (≈ 4.72 µM); in assay [9] it was 3 µg/mL (≈ 4.72 µM); in [10] it was 8 µg/mL (≈ 12.6 µM); in assay [11] it was 0.6 µg/mL (≈ 0.944 µM).

With `NC(=O)OCC1=C(C(=O)O)N2C(=O)C(NC(=O)C(NC(=O)n3c(=O)[nH]c4ccccc43)c3ccc(O)cc3)[C@H]2SC1` (stereo partly drawn) [Test Compound E, 7-[α-(2,3-dihydro-2-oxo-1H-benzimidazol-1-ylcarbonylamino)-4-hydroxyphenylacetamido]-3-carbamoyloxymethyl-3-cephem-4-carboxylic acid], the MIC was 120 µg/mL (≈ 206 µM) in assay [1]; > 200 µg/mL in assay [2]; 180 µg/mL (≈ 309 µM) in assay [3]; > 200 µg/mL in assay [4]; 100 µg/mL (≈ 172 µM) in assay [5]; 160 µg/mL (≈ 275 µM) in assay [6]. Besides, the MIC in assay [7] amounted to 120 µg/mL (≈ 206 µM); in [8], 5 µg/mL (≈ 8.58 µM); in assay [9], 5 µg/mL (≈ 8.58 µM); in assay [10], 10 µg/mL (≈ 17.2 µM); in assay [11], 0.7 µg/mL (≈ 1.2 µM).
